In ChEMBL document CHEMBL5329153, “Is structural hybridization invoking new dimensions for antimalarial drug discovery research?” (RSC Med Chem, 2023):
pIC50: −log10 of the molar value.

The compounds below were run on Plasmodium falciparum (assay: Antimalarial activity against Chloroquine sensitive Plasmodium falciparum D6 assessed as parasitic growth inhibition).
Format: functional, organism-based

Q: With `Cc1cc(NCCNc2ccnc3cc(Cl)ccc23)nc(Nc2ccc(C(=O)N3CCCCC3)cc2)n1` as the compound, how does the pIC50 read?
A: 7.49

Q: How did the pIC50 turn out when `Cc1cc(NCCNc2ccnc3cc(Cl)ccc23)nc(Nc2ccc(C(=O)N3CCSCC3)cc2)n1` was run?
A: 7.49

Q: With `Cc1cc(NCCCNc2ccnc3cc(Cl)ccc23)nc(Nc2ccc(C(=O)N3CCCC3)cc2)n1` as the compound, how does the pIC50 read?
A: 7.49

Q: How did the pIC50 turn out when `Cc1cc(NCCNc2ccnc3cc(Cl)ccc23)nc(Nc2ccc(C(=O)N3CCCC3)cc2)n1` was run?
A: 7.49

Q: `Cc1cc(Nc2ccc(C(=O)N3CCSCC3)cc2)nc(NCCCCNc2ccnc3cc(Cl)ccc23)n1` was tested. Which pIC50 did it give?
A: 7.49

Q: `Cc1cc(NCCCCNc2ccnc3cc(Cl)ccc23)nc(Nc2ccc(C(=O)N3CCCC3)cc2)n1` was tested. Which pIC50 did it give?
A: 7.49

Q: How did the pIC50 turn out when `O=C(c1ccc(Nc2nccc(NCCCCNc3ccnc4cc(Cl)ccc34)n2)cc1)N1CCOCC1` was run?
A: 7.49

Q: With `O=C(c1ccc(Nc2nccc(NCCCCNc3ccnc4cc(Cl)ccc34)n2)cc1)N1CCCCC1` as the compound, how does the pIC50 read?
A: 7.49

Q: `Cc1cc(Nc2ccc(C(=O)N3CCSCC3)cc2)nc(NCCCNc2ccnc3cc(Cl)ccc23)n1` was tested. Which pIC50 did it give?
A: 7.49

Q: How did the pIC50 turn out when `Cc1cc(NCCNc2ccnc3cc(Cl)ccc23)nc(Nc2ccc(C(=O)N3CCOCC3)cc2)n1` was run?
A: 7.49

Q: With `O=C(c1ccc(Nc2nccc(NCCCCNc3ccnc4cc(Cl)ccc34)n2)cc1)N1CCSCC1` as the compound, how does the pIC50 read?
A: 7.49

Q: How did the pIC50 turn out when `O=C(c1ccc(Nc2nccc(NCCCNc3ccnc4cc(Cl)ccc34)n2)cc1)N1CCOCC1` was run?
A: 7.49

Q: How did the pIC50 turn out when `Cc1cc(NCCCNc2ccnc3cc(Cl)ccc23)nc(Nc2ccc(C(=O)N3CCSCC3)cc2)n1` was run?
A: 7.49

Q: `Cc1cc(Nc2ccc(C(=O)N3CCOCC3)cc2)nc(NCCCCNc2ccnc3cc(Cl)ccc23)n1` was tested. Which pIC50 did it give?
A: 7.49

Q: With `Cc1cc(NCCCCCCNc2ccnc3cc(Cl)ccc23)nc(Nc2ccc(C(=O)N3CCCC3)cc2)n1` as the compound, how does the pIC50 read?
A: 7.49

Q: `O=C(c1ccc(Nc2nccc(NCCCNc3ccnc4cc(Cl)ccc34)n2)cc1)N1CCCC1` was tested. Which pIC50 did it give?
A: 7.49

Q: With `Cc1cc(NCCCNc2ccnc3cc(Cl)ccc23)nc(Nc2ccc(C(=O)N3CCCCC3)cc2)n1` as the compound, how does the pIC50 read?
A: 7.49

Q: `Cc1cc(NCCCCNc2ccnc3cc(Cl)ccc23)nc(Nc2ccc(C(=O)N3CCCCC3)cc2)n1` was tested. Which pIC50 did it give?
A: 7.49

Q: `Cc1cc(Nc2ccc(C(=O)N3CCCC3)cc2)nc(NCCCCNc2ccnc3cc(Cl)ccc23)n1` was tested. Which pIC50 did it give?
A: 7.49

Q: How did the pIC50 turn out when `O=C(c1ccc(Nc2nccc(NCCCNc3ccnc4cc(Cl)ccc34)n2)cc1)N1CCCCC1` was run?
A: 7.49

Q: `O=C(c1ccc(Nc2nccc(NCCCCNc3ccnc4cc(Cl)ccc34)n2)cc1)N1CCCC1` was tested. Which pIC50 did it give?
A: 7.49

Q: `O=C(c1ccc(Nc2nccc(NCCCNc3ccnc4cc(Cl)ccc34)n2)cc1)N1CCSCC1` was tested. Which pIC50 did it give?
A: 7.49

Q: With `Cc1cc(NCCCCCCNc2ccnc3cc(Cl)ccc23)nc(Nc2ccc(C(=O)N3CCCCC3)cc2)n1` as the compound, how does the pIC50 read?
A: 7.49

Q: With `Cc1cc(NCCCNc2ccnc3cc(Cl)ccc23)nc(Nc2ccc(C(=O)N3CCOCC3)cc2)n1` as the compound, how does the pIC50 read?
A: 7.49

Q: `Cc1cc(NCCCCNc2ccnc3cc(Cl)ccc23)nc(Nc2ccc(C(=O)N3CCSCC3)cc2)n1` was tested. Which pIC50 did it give?
A: 7.49

Q: `Cc1cc(Nc2ccc(C(=O)N3CCOCC3)cc2)nc(NCCCNc2ccnc3cc(Cl)ccc23)n1` was tested. Which pIC50 did it give?
A: 7.49

Q: With `Cc1cc(Nc2ccc(C(=O)N3CCCCC3)cc2)nc(NCCCCNc2ccnc3cc(Cl)ccc23)n1` as the compound, how does the pIC50 read?
A: 7.49

Q: How did the pIC50 turn out when `Cc1cc(Nc2ccc(C(=O)N3CCCC3)cc2)nc(NCCCNc2ccnc3cc(Cl)ccc23)n1` was run?
A: 7.49

Q: `Cc1cc(Nc2ccc(C(=O)N3CCCCC3)cc2)nc(NCCCNc2ccnc3cc(Cl)ccc23)n1` was tested. Which pIC50 did it give?
A: 7.49

Each compound was assayed on Plasmodium falciparum (assay: Antimalarial activity against Chloroquine resistant Plasmodium falciparum W2 assessed as parasitic growth inhibition).
Format: functional, organism-based

Q: `Cc1cc(NCCNc2ccnc3cc(Cl)ccc23)nc(Nc2ccc(C(=O)N3CCCCC3)cc2)n1` was tested. Which pIC50 did it give?
A: 7.48

Q: How did the pIC50 turn out when `Cc1cc(NCCNc2ccnc3cc(Cl)ccc23)nc(Nc2ccc(C(=O)N3CCSCC3)cc2)n1` was run?
A: 7.48

Q: How did the pIC50 turn out when `Cc1cc(NCCCNc2ccnc3cc(Cl)ccc23)nc(Nc2ccc(C(=O)N3CCCC3)cc2)n1` was run?
A: 7.48

Q: `Cc1cc(NCCNc2ccnc3cc(Cl)ccc23)nc(Nc2ccc(C(=O)N3CCCC3)cc2)n1` was tested. Which pIC50 did it give?
A: 7.48

Q: With `Cc1cc(Nc2ccc(C(=O)N3CCSCC3)cc2)nc(NCCCCNc2ccnc3cc(Cl)ccc23)n1` as the compound, how does the pIC50 read?
A: 7.48

Q: With `Cc1cc(NCCCCNc2ccnc3cc(Cl)ccc23)nc(Nc2ccc(C(=O)N3CCCC3)cc2)n1` as the compound, how does the pIC50 read?
A: 7.48

Q: `O=C(c1ccc(Nc2nccc(NCCCCNc3ccnc4cc(Cl)ccc34)n2)cc1)N1CCOCC1` was tested. Which pIC50 did it give?
A: 7.48

Q: How did the pIC50 turn out when `O=C(c1ccc(Nc2nccc(NCCCCNc3ccnc4cc(Cl)ccc34)n2)cc1)N1CCCCC1` was run?
A: 7.48

Q: With `Cc1cc(Nc2ccc(C(=O)N3CCSCC3)cc2)nc(NCCCNc2ccnc3cc(Cl)ccc23)n1` as the compound, how does the pIC50 read?
A: 7.48

Q: How did the pIC50 turn out when `Cc1cc(NCCNc2ccnc3cc(Cl)ccc23)nc(Nc2ccc(C(=O)N3CCOCC3)cc2)n1` was run?
A: 7.48

Q: With `O=C(c1ccc(Nc2nccc(NCCCCNc3ccnc4cc(Cl)ccc34)n2)cc1)N1CCSCC1` as the compound, how does the pIC50 read?
A: 7.48

Q: `O=C(c1ccc(Nc2nccc(NCCCNc3ccnc4cc(Cl)ccc34)n2)cc1)N1CCOCC1` was tested. Which pIC50 did it give?
A: 7.48

Q: How did the pIC50 turn out when `Cc1cc(NCCCNc2ccnc3cc(Cl)ccc23)nc(Nc2ccc(C(=O)N3CCSCC3)cc2)n1` was run?
A: 7.48

Q: How did the pIC50 turn out when `Cc1cc(Nc2ccc(C(=O)N3CCOCC3)cc2)nc(NCCCCNc2ccnc3cc(Cl)ccc23)n1` was run?
A: 7.48

Q: How did the pIC50 turn out when `Cc1cc(NCCCCCCNc2ccnc3cc(Cl)ccc23)nc(Nc2ccc(C(=O)N3CCCC3)cc2)n1` was run?
A: 7.48

Q: How did the pIC50 turn out when `O=C(c1ccc(Nc2nccc(NCCCNc3ccnc4cc(Cl)ccc34)n2)cc1)N1CCCC1` was run?
A: 7.48

Q: How did the pIC50 turn out when `Cc1cc(NCCCNc2ccnc3cc(Cl)ccc23)nc(Nc2ccc(C(=O)N3CCCCC3)cc2)n1` was run?
A: 7.48

Q: With `Cc1cc(NCCCCNc2ccnc3cc(Cl)ccc23)nc(Nc2ccc(C(=O)N3CCCCC3)cc2)n1` as the compound, how does the pIC50 read?
A: 7.48

Q: How did the pIC50 turn out when `Cc1cc(Nc2ccc(C(=O)N3CCCC3)cc2)nc(NCCCCNc2ccnc3cc(Cl)ccc23)n1` was run?
A: 7.48

Q: `O=C(c1ccc(Nc2nccc(NCCCNc3ccnc4cc(Cl)ccc34)n2)cc1)N1CCCCC1` was tested. Which pIC50 did it give?
A: 7.48

Q: How did the pIC50 turn out when `O=C(c1ccc(Nc2nccc(NCCCCNc3ccnc4cc(Cl)ccc34)n2)cc1)N1CCCC1` was run?
A: 7.48

Q: `O=C(c1ccc(Nc2nccc(NCCCNc3ccnc4cc(Cl)ccc34)n2)cc1)N1CCSCC1` was tested. Which pIC50 did it give?
A: 7.48

Q: With `Cc1cc(NCCCCCCNc2ccnc3cc(Cl)ccc23)nc(Nc2ccc(C(=O)N3CCCCC3)cc2)n1` as the compound, how does the pIC50 read?
A: 7.48

Q: With `Cc1cc(NCCCNc2ccnc3cc(Cl)ccc23)nc(Nc2ccc(C(=O)N3CCOCC3)cc2)n1` as the compound, how does the pIC50 read?
A: 7.48

Q: `Cc1cc(NCCCCNc2ccnc3cc(Cl)ccc23)nc(Nc2ccc(C(=O)N3CCSCC3)cc2)n1` was tested. Which pIC50 did it give?
A: 7.48

Q: With `Cc1cc(Nc2ccc(C(=O)N3CCOCC3)cc2)nc(NCCCNc2ccnc3cc(Cl)ccc23)n1` as the compound, how does the pIC50 read?
A: 7.48

Q: With `Cc1cc(Nc2ccc(C(=O)N3CCCCC3)cc2)nc(NCCCCNc2ccnc3cc(Cl)ccc23)n1` as the compound, how does the pIC50 read?
A: 7.48

Q: With `Cc1cc(Nc2ccc(C(=O)N3CCCC3)cc2)nc(NCCCNc2ccnc3cc(Cl)ccc23)n1` as the compound, how does the pIC50 read?
A: 7.48

Q: With `Cc1cc(Nc2ccc(C(=O)N3CCCCC3)cc2)nc(NCCCNc2ccnc3cc(Cl)ccc23)n1` as the compound, how does the pIC50 read?
A: 7.48
